Results reported in ChEMBL document CHEMBL5465560, “Selectivity Literature for EUbOPEN Chemogenomic Library” (2024).
One block for each compound: values may come before it.

Tests used:
[1] = molecular target: Epithelial discoidin domain-containing receptor 1 (Homo sapiens) (UniProt Q08345); experiment: Selectivity interaction (KinomeScan (DiscoverX)) EUB0000699a DDR1; conditions: at 10 µM
[2] = molecular target: Cyclin-dependent kinase 5 (Homo sapiens, UniProt Q00535); experiment: Selectivity interaction (Ambit KINOMEscan and KiNATiv profiling in Jurkat cells) EUB0000090b CDK5; assay type: cell-based; conditions: at 1 µM
[3] = molecular target: T1, Dual specificity mitogen-activated protein kinase kinase 4 (Homo sapiens) (UniProt P45985); experiment: Selectivity interaction (ActivX KiNativ screen (kinase selectivity in THP-1 cell lysates)) EUB0000639a MAP2K4; assay type: subcellular; conditions: lysate, at 0.04 µM
T1 sequence (whole entry): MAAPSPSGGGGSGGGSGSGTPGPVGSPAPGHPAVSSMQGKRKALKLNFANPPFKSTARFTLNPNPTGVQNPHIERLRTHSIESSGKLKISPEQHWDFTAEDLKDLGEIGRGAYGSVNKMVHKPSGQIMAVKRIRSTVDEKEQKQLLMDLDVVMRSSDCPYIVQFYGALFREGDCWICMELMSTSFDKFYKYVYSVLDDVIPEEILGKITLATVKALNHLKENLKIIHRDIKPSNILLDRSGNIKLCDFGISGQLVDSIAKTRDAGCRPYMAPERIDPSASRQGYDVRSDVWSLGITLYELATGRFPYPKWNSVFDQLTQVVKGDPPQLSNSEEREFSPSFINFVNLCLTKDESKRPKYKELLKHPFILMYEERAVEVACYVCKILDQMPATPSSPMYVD

[4] = molecular target: Calcium/calmodulin-dependent protein kinase type II subunit beta (Homo sapiens) (UniProt Q13554); experiment: Selectivity interaction (ActivX KiNativ screen (kinase selectivity in THP-1 cell lysates)) EUB0000639a CAMK2B; assay type: subcellular; conditions: lysate, at 1 µM
[5] = molecular target: Serine/threonine-protein kinase mTOR (Homo sapiens, UniProt P42345); experiment: Selectivity interaction (KinomeScan (DiscoverX)) EUB0001049a MTOR; conditions: at 1 µM
[6] = molecular target: T2, Serine/threonine-protein kinase D1 (Homo sapiens) (UniProt Q15139); experiment: Selectivity interaction (KinomeScan (DiscoverX)) EUB0000666a PRKD1; conditions: at 10 µM
T2 sequence (whole entry): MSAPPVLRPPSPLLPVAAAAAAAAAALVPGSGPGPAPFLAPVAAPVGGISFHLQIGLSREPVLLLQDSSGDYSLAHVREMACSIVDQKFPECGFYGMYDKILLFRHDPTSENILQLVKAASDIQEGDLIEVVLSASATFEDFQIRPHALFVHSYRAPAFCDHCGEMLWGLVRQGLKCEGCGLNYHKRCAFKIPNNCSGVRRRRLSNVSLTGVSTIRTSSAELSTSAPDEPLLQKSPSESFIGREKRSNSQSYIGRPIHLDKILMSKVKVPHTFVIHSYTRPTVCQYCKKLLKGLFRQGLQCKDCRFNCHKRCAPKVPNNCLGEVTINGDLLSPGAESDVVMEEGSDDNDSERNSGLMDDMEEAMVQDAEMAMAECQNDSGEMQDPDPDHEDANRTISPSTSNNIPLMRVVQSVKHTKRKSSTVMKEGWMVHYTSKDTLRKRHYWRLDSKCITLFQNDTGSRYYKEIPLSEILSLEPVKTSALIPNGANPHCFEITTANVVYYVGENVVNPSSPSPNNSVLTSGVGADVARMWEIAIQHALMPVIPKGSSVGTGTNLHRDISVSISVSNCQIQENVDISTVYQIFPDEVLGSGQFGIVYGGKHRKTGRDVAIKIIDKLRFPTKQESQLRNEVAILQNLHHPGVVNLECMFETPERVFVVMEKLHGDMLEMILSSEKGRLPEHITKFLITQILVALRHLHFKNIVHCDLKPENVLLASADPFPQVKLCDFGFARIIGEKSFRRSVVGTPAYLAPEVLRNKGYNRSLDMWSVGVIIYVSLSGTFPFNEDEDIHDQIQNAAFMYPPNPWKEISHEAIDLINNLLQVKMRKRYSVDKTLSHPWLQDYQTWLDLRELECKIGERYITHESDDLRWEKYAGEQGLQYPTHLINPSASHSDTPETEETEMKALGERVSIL

[7] = molecular target: T3, Serine/threonine-protein kinase ULK1 (Homo sapiens) (UniProt O75385); experiment: Selectivity interaction (KinomeScan (DiscoverX)) EUB0000666a ULK1; conditions: at 10 µM
T3 sequence (whole entry): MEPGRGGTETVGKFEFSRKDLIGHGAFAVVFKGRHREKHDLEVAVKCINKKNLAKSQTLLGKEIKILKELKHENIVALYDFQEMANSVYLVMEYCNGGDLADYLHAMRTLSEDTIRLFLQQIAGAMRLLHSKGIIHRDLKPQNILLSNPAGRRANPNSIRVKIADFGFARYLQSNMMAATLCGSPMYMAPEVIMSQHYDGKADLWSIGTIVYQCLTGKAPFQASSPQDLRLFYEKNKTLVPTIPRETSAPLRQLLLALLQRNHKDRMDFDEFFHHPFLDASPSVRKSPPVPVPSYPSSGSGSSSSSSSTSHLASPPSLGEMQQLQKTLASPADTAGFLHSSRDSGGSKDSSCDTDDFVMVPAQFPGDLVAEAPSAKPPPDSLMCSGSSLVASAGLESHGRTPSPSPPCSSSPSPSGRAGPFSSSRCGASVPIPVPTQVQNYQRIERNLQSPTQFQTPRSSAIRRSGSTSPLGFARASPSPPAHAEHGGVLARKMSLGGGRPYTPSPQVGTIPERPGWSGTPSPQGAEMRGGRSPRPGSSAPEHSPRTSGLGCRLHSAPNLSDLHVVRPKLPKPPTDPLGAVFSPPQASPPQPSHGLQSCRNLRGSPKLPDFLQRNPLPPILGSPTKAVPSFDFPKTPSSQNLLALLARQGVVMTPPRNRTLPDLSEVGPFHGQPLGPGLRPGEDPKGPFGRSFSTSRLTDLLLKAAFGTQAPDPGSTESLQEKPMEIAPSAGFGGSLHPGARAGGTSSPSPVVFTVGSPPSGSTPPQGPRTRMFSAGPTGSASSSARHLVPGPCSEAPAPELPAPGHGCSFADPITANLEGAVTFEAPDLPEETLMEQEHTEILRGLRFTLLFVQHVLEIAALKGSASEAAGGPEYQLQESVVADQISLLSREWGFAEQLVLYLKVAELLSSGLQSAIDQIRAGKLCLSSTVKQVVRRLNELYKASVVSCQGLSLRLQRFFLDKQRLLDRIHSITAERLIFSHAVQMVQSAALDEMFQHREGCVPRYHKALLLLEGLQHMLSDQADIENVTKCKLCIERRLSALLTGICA

[8] = molecular target: Bromodomain and WD repeat-containing protein 1 (Homo sapiens) (UniProt Q9NSI6); experiment: Selectivity interaction (Human bromodomain panel (DSF assay)) EUB0000233b BRWD1
Sequence of Bromodomain and WD repeat-containing protein 1 (Homo sapiens) (Q9NSI6 whole entry): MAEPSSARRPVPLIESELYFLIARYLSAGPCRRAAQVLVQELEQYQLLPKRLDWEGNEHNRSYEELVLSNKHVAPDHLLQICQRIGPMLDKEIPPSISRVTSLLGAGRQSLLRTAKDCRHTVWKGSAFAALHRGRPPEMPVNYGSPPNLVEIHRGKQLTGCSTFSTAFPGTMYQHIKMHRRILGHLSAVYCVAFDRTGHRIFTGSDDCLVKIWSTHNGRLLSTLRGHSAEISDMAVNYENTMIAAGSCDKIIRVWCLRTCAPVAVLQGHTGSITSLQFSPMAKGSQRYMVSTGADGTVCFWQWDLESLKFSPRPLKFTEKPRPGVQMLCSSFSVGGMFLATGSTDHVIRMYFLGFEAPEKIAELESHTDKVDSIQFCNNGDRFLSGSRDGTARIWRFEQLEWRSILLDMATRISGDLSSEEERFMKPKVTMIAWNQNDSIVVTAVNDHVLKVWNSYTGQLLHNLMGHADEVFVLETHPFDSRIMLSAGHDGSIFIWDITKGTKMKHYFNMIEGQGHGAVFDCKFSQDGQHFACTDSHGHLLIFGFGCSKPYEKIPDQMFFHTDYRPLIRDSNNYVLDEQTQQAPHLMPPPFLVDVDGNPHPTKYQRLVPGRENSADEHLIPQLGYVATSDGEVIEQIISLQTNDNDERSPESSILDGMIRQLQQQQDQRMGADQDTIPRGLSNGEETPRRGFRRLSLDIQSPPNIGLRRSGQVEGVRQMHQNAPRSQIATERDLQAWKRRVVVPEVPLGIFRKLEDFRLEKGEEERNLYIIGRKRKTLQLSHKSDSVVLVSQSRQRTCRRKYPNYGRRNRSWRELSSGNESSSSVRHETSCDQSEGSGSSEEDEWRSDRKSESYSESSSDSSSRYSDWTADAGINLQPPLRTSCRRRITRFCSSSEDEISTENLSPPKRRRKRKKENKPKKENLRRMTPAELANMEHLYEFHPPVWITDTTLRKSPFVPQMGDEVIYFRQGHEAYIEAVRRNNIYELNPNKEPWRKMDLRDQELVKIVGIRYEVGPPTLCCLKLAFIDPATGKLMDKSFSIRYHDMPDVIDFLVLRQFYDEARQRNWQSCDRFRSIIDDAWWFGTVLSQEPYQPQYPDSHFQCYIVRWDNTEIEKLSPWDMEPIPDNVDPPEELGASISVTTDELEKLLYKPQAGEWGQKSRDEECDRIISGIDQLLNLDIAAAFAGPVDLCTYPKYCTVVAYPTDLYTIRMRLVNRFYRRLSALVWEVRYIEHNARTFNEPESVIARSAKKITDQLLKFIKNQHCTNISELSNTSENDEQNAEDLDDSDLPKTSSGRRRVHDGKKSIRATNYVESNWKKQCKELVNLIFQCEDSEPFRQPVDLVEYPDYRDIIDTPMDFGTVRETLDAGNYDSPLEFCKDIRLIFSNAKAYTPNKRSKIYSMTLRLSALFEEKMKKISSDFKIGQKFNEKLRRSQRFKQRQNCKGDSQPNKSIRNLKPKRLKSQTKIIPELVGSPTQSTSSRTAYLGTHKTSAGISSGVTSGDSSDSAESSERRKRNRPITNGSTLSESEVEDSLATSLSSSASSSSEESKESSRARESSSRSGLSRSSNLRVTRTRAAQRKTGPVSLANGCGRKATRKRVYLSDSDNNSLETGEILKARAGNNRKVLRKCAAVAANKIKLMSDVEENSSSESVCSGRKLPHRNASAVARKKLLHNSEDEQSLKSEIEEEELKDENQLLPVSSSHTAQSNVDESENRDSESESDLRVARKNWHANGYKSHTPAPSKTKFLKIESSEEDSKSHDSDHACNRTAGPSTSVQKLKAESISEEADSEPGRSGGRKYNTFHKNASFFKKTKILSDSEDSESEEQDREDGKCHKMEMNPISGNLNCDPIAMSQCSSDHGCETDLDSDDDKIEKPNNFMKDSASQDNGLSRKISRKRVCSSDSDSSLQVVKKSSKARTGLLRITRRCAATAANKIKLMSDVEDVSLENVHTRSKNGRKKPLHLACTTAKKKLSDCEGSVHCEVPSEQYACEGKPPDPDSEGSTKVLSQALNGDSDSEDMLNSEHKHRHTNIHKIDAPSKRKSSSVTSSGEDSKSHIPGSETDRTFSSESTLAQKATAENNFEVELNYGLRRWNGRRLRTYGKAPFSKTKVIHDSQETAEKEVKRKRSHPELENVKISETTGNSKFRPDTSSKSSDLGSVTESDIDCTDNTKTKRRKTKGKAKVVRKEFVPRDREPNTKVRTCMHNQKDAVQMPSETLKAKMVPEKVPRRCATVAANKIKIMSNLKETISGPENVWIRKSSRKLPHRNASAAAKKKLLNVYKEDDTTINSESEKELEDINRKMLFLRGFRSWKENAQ

Sequence of Calcium/calmodulin-dependent protein kinase type II subunit beta (Homo sapiens) (Q13554 whole entry): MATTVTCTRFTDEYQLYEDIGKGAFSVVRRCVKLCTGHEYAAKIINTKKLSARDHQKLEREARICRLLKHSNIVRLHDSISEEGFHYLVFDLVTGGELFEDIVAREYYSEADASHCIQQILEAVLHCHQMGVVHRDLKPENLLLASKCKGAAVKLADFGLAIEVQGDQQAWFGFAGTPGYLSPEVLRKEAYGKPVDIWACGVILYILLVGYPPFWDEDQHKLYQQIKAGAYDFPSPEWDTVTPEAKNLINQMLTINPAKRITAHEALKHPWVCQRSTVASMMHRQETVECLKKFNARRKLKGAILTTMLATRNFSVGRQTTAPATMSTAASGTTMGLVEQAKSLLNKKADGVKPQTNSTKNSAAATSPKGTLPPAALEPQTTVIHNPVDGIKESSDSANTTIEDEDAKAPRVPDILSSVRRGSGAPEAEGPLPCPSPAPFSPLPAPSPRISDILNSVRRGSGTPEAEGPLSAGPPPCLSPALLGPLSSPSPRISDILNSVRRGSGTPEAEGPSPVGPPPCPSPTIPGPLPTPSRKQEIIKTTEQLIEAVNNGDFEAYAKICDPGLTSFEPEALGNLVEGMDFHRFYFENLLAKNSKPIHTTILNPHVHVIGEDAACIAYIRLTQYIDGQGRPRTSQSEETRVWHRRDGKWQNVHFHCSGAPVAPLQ
Sequence of Epithelial discoidin domain-containing receptor 1 (Homo sapiens) (Q08345 whole entry, the tested form may be a part): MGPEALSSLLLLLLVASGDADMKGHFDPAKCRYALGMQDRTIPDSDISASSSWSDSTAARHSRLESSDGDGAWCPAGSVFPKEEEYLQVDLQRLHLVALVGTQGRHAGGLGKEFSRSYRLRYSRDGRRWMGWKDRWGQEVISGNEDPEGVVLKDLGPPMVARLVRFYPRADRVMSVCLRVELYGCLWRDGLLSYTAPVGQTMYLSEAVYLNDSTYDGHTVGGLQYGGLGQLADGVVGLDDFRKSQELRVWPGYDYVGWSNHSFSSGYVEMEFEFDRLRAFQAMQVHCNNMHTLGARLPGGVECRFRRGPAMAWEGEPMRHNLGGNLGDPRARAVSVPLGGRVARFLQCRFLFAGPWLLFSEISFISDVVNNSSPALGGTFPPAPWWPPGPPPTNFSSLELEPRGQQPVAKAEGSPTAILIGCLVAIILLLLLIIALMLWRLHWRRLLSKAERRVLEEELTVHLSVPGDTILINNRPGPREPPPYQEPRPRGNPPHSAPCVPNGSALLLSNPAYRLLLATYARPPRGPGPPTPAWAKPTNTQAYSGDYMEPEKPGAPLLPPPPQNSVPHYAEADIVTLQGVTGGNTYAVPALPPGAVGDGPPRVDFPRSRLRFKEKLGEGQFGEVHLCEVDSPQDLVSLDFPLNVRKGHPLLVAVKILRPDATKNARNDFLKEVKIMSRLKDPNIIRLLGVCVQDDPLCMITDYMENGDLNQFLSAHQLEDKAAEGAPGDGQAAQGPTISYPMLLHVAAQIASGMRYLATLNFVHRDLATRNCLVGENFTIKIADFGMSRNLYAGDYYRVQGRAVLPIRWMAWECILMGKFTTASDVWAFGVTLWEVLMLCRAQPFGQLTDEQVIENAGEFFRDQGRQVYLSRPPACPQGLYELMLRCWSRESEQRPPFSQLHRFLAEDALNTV
Sequence of Cyclin-dependent kinase 5 (Q00535 whole entry, looked up): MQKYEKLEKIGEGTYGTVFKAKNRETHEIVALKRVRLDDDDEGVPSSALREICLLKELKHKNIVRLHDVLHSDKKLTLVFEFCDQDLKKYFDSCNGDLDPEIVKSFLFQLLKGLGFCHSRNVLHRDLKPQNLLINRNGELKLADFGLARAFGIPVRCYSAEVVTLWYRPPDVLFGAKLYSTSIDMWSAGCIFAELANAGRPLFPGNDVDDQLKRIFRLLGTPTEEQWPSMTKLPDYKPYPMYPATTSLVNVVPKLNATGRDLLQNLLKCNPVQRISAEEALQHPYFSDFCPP

SMILES: CN(C)C/C=C/C(=O)Nc1ccc(C(=O)N2CCCC(Nc3ncc(Cl)c(-c4c[nH]c5ccccc45)n3)C2)cc1 (stereo not drawn)
- % of control [2]: 89%

SMILES: COc1cc(Nc2nc(C)cc(-c3cnn4nc(OC)ccc34)n2)cc(C(F)(F)F)c1
- % of control [5]: 100%

SMILES: O=C(NOC[C@H](O)CO)c1ccc(F)c(F)c1Nc1ccc(I)cc1F
- % of control [6]: 100%
- % of control [7]: 100%

SMILES: CN(C)CCCOc1ccc(-c2cc(NCCCn3cccn3)nc(S(C)(=O)=O)n2)cc1
- dTM [8]: < 2 K

Other lines, results leading:

- % of control [1]: 1.1%
SMILES: CCN(CC)CCCCNc1ncc2cc(-c3cc(OC)cc(OC)c3)c(NC(=O)NC(C)(C)C)nc2n1

- % of inhibition [3]: 8%
- % of inhibition [4]: 10%
SMILES: CC[C@@H]1[C@H](F)C(=O)N[C@@H]1COc1nccc2cc(C(N)=O)c(OC)cc12 [ZIMLOVISERTIB]
